This test deals with T1, KK-LC-1 (Homo sapiens, UniProt Q5H943).
T1 construct: gene CT83; purified KK-LC-1 protein, biotinylated, immobilised on Super Streptavidin sensors
T1 sequence (Q5H943 1-113): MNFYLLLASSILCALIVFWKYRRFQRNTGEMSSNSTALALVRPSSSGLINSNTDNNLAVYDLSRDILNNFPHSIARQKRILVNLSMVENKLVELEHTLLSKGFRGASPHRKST
Put plainly: biolayer interferometry (Octet K2). As to conditions: 30 °C; PBS with 0.1% BSA, 0.01% Tween-20, 1% DMSO; biotinylated KK-LC-1 immobilised; from kon/koff. The format is binding.

Molecules are shown by their SMILES.

In turn, `Cc1ccc(CNC(=O)c2nnc(CN(C)C3CCc4ccccc43)s2)cc1` (stereo not shown) [Z8, Z839878730] showed a Kd of 4.3 µM.

The values are drawn from article PMC10163259, “KK-LC-1 as a therapeutic target to eliminate ALDH^+ stem cells in triple negative breast cancer” (Nature Communications, 2023).
